Key:
Assay in all cases: relative viability (nuclei count vs DMSO), 5 days (fraction); higher = more cells survive
[1] = compound: CN[C@@H]1C[C@H]2O[C@@](C)([C@@H]1OC)n1c3ccccc3c3c4c(c5c6ccccc6n2c5c31)C(=O)NC4 [Staurosporine] + CC(C)C[C@H](NC(=O)[C@H](Cc1ccccc1)NC(=O)c1cnccn1)B(O)O [Bortezomib] (partner 0.002 µM)
In short: (§1)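 Values are medians from duplicate plates. Each reflects relative viability, defined as the nuclei count of treated wells over that of vehicle wells. Lung cancer cell lines in 1536-well plates were pin-tool dosed one day after seeding with one drug alone or with a fixed anchor-drug dose plus five library-drug doses (not always all listed) in √10 steps, then fixed, stained and imaged at 4× after 5 days.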

Sulindac + Lapatinib = compound: CC1=C(CC(=O)O)c2cc(F)ccc2/C1=C\c1ccc([S+](C)[O-])cc1 [Sulindac] + CS(=O)(=O)CCNCc1ccc(-c2ccc3ncnc(Nc4ccc(OCc5cccc(F)c5)c(Cl)c4)c3c2)o1 [Lapatinib] (partner 2 µM)
In short: as §1

Sulindac + Navitoclax = compound: CC1=C(CC(=O)O)c2cc(F)ccc2/C1=C\c1ccc([S+](C)[O-])cc1 [Sulindac] + CC1(C)CCC(c2ccc(Cl)cc2)=C(CN2CCN(c3ccc(C(=O)NS(=O)(=O)c4ccc(N[C@H](CCN5CCOCC5)CSc5ccccc5)c(S(=O)(=O)C(F)(F)F)c4)cc3)CC2)C1 [Navitoclax] (partner 0.5 µM)
In short: as §1

[2] = compound: CN[C@@H]1C[C@H]2O[C@@](C)([C@@H]1OC)n1c3ccccc3c3c4c(c5c6ccccc6n2c5c31)C(=O)NC4 [Staurosporine] + C[C@]1(O)C[C@@H](c2nc(-c3ccc4ccc(-c5ccccc5)nc4c3)c3c(N)nccn32)C1 [Linsitinib] (partner 1 µM)
In short: as §1

Cell Line | relative viability ([1]; first compound 0.005 µM) | relative viability ([1]; first compound 0.05 µM) | relative viability ([1]; first compound 0.1581 µM) | relative viability ([1]; first compound 0.5 µM) | relative viability (Sulindac + Lapatinib; first compound 0.08 µM) | relative viability (Sulindac + Lapatinib; first compound 0.253 µM) | relative viability (Sulindac + Lapatinib; first compound 0.8 µM) | relative viability (Sulindac + Lapatinib; first compound 2.53 µM) | relative viability (Sulindac + Lapatinib; first compound 8 µM) | relative viability (Sulindac + Navitoclax; first compound 0.08 µM) | relative viability (Sulindac + Navitoclax; first compound 0.253 µM) | relative viability (Sulindac + Navitoclax; first compound 0.8 µM) | relative viability (Sulindac + Navitoclax; first compound 2.53 µM) | relative viability (Sulindac + Navitoclax; first compound 8 µM) | relative viability ([2]; first compound 0.005 µM) | relative viability ([2]; first compound 0.05 µM) | relative viability ([2]; first compound 0.1581 µM) | relative viability ([2]; first compound 0.5 µM) | relative viability ([1]; first compound 0.01581 µM) | relative viability ([2]; first compound 0.01581 µM)
NCI-H1915 | 1.04 | 0.327 | 0.118 | 0.154 | 1.24 | 1.09 | 0.842 | 0.913 | 1.1 | 0.873 | 0.808 | 0.78 | 0.742 | 0.832 | 1.11 | 0.61 | 0.486 | 0.342 | – | –
COR-L23 | 0.69 | 0.272 | 0.104 | 0.0851 | 1.58 | 1.16 | – | 0.976 | 1.12 | 1.19 | 1.09 | – | 0.964 | 1.3 | 0.534 | 0.134 | 0.0552 | 0.041 | 0.282 | 0.27
HOP-62 | 0.976 | 0.186 | 0.0948 | 0.0922 | 1.19 | 1.24 | 0.929 | 1.15 | 1.19 | 0.982 | 1.37 | – | 1.21 | 1.22 | 1.07 | 0.117 | 0.111 | 0.108 | 0.495 | 0.604
NCI-H1975 | 0.22 | 0.143 | 0.129 | – | 1.27 | 1.03 | – | 0.952 | 1.01 | 1.26 | 1.24 | – | 1.21 | 1.25 | 0.323 | – | 0.139 | 0.124 | 0.144 | 0.229
BEN | 0.698 | – | 0.253 | 0.163 | 0.785 | 0.714 | 0.695 | 0.754 | 0.995 | 0.0725 | 0.0631 | 0.065 | 0.0775 | 0.0638 | 1.23 | 0.436 | 0.52 | 0.245 | 0.528 | 0.923
NCI-H1437 | 0.356 | 0.294 | 0.0975 | 0.0786 | 0.884 | 1.01 | 0.593 | 0.856 | 1.1 | 1.28 | 1.1 | 1.05 | 1.1 | 1.38 | – | 0.255 | 0.128 | 0.0812 | 0.167 | 0.43
EMC-BAC-2 | 0.564 | 0.224 | 0.178 | 0.137 | 0.945 | 0.973 | 0.682 | 0.88 | 0.93 | 1.49 | 1.21 | 0.776 | 1.19 | 1.23 | 0.457 | 0.122 | 0.152 | 0.133 | 0.564 | 0.394

Reference: the supplement of paper PMC10307832
